These are literature values, as cited in patent US7855206B2, “Tricyclic heteroaromatic compounds as dipeptidyl peptidase-IV inhibitors for the treatment or prevention of diabetes” (Merck Sharp & Dohme Corp., priority 2006, dated 2010).

In data set [1] the test system is cardiac allograft in rats. Particulars: doubled from day 7.
Data set [2] relates to hematopoiesis in mouse. To be noted: cyclophosphamide-induced neutropenia.
Data set [3] deals with GRF degradation in plasma.

As for `CC(C)N1CCC(c2ccccc2)(c2ccccc2)CC1` [Prodipine, Pro-Pro-diphenyl-phosphonate], the cardiac allograft survival in data set [1] is 14 day. Consider `CC(C)[C@H](N)C(=O)N1CCC[C@H]1B(O)O` [Val-Boro-Pro], for which the effect on hematopoiesis result in data set [2] is on record as “stimulated hematopoiesis”.

Turning to `CC[C@H](C)[C@H](N)C(=O)N1CCC[C@H]1C(=O)N[C@H](C(=O)O)[C@@H](C)CC` [diprotin A], the “effect on degradation of GRF to GRF[3-44]” value in data set [3] was “prevented”.
